Results taken from US12617818B2, “Compositions and methods for modulating myosin subfragment-2 coiled coil stability and methods for using them” (UNIVERSITY OF NORTH TEXAS, priority 2020, dated 2026).
pEC50, pKd: −log10 of the molar value. “And” between values parts separate entries of the source, which are not always exact repeats. Equal values may be shown once.

Assays:
[1] = test system: rabbit skeletal myofibrils; assay: Myofibrillar contractility assay (incubated myofibrils, 1 mM ATP); assay type: biochemical
[2] = target: T1, cardiac muscle myosin S2 mutant peptide E930del (MYH7) (Homo sapiens, UniProt P12883, DEL930-930); assay: FRET of E930del mutant cardiac myosin S2 peptide dimer with stabilizer; assay type: binding
T1 construct: cardiac muscle myosin S2 peptides region 921 to 939; host or cells: chemical synthesis
Description: This mutation cause mechanical instability and unstable coiled coil. Again the sequence of this mutation was obtained using PDB. An 18 residue peptide of this region was chemically synthesized. Generated amino acid sequence used is as follow: • E930del: NH2-[…]—COOH (SEQ ID NO:8)
(§1) Resonance energy probes (donor and acceptor) were covalently attached to synthetic myosin S2 peptides of cardiac muscle, E930del cardiac muscle, E924K cardiac muscle, smooth muscle, and skeletal muscle (Aboonasrshiraz, N., 2020).
(§2) Acceptor probe was conjugated to muscle myosin S2 peptides at N-terminus. Muscle myosin S2 peptides were dissolved in 20 mM HEPES buffer at pH 8.0. And FITC was dissolved in few drops of N, N dimethyl formamide. Lastly, FITC and muscle myosin S2 peptide was reacted together in 1 to 1 molar ratio and was let to react for 120 minutes at room temperature. The FITC conjugated S2 peptides were purified using (write a sentence about the chromatography). […]
(§3) In FRET assay, Fluorescein Isothiocyanate (FITC) functioned as fluorescent acceptor probe and Terbium Diethylene Triamine Pentaacetic Acid-Cytosine (Lanthanide-DTPA-Cytosine) functioned as donor probe. […] Lifetime of donor probe was measured in milliseconds.
In FRET assay, like E924K, Edel930 was treated with different concentrations of the stabilizer. […] Calculated separation distance in presence of the stabilizer peptide was 3.38 nm.

[3] = target: skeletal muscle myosin S2 peptide (MYH2) (Homo sapiens, UniProt Q9UKX2); assay: FRET of skeletal muscle myosin S2 peptide dimer with anti-S2 peptides; assay type: binding; set-up: A 19 residue peptide of the S2 region of MYH2 was matched to the previously synthesized S2 peptide; host or cells: chemical synthesis; details: Skeletal peptide with Stabilizer
Description: MYH2 gene codes for human skeletal muscle myosin expressed in fast type IIA muscle fibers. This myosin isoform can be found within extraocular muscle. A 19 residue peptide of the S2 region of MYH2 was matched to the previously synthesized S2 peptide of cardiac isoform and chemically synthesized […]. Generated amino acid sequence used is as follow: residues 925 to 945
as §1
Acceptor probe was conjugated to muscle myosin S2 peptides at N-terminus. Muscle myosin S2 peptides were dissolved in 20 mM HEPES buffer at pH 8.0. And FITC was dissolved in few drops of N, N dimethyl formamide. […]
as §3
Like cardiac muscle myosin S2^pep, dilution by decreasing the concentration of dimer skeletal muscle myosin S2^pep was performed and further was treated with different concentrations of anti-S2 peptides (FIG. 28A, 28B). […] Calculated separation distance in presence of the stabilizer peptide was 3.58 nm.

[4] = target: T2, smooth muscle myosin S2 peptide (MYH11) (Homo sapiens, UniProt P35749); assay: FRET of smooth muscle myosin S2 peptide dimer with anti-S2 peptides; assay type: binding; details: Smooth peptide with Stabilizer
T2 construct: A 21 residue peptide of the S2 region of MYH11 was matched to the previously synthesized S2 peptide; host or cells: chemical synthesis
Description: Human smooth muscle myosin heavy chain (MYH11) is a part of the non-striated muscle. This gene can be found within esophagus, endometrium, duodenum, etc. A 21 residue peptide of the S2 region of MYH11 was matched to the previously synthesized S2 peptide of cardiac isoform and chemically synthesized 926-946. Generated amino acid sequence used is as follow: • Smooth: NH2-[…]—COOH (SEQ ID NO:11)
as §1
as §2, with “temperature.” for “temperature. The FITC conjugated S2 peptides were purified using (write a sentence about the chromatography).”
as §3
The specificity of peptides were later tested on the myosin S2 of the smooth muscle (MYH11). […] Calculated separation distance in presence of the stabilizer peptide was 3.34 nm.

T2 sequence (P35749 926-946): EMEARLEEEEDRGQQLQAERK

| pKd ([1]; from percentage contraction vs concentration, listed as destabilizer peptide, read-out: binding efficiency (Kd) to myofibrils) | pEC50 ([1]; read-out: effective concentration on percentage of contraction in myofibrils) | TD (donor lifetime without acceptor) [2] | TD (donor lifetime without acceptor) [3] | TD (donor lifetime without acceptor) [4] | SMILES | concentration above which percentage contraction saturated [1] | maximum percentage contraction in myofibrils ([1]; in presence of destabilizer peptide) |
| --- | --- | --- | --- | --- | --- | --- | --- |
| 8.10 and 8.11 | > 8.00 |  |  |  | CSCC[C@H](NC(=O)[C@H](CCC(=O)O)NC(=O)[C@H](CCCNC(=N)N)NC(=O)[C@H](CCC(=O)O)NC(=O)[C@H](CC(=O)O)NC(=O)[C@H](CCC(=O)O)NC(=O)[C@H](CC(C)C)NC(=O)[C@H](CCCNC(=N)N)NC(=O)[C@H](CCC(=O)O)NC(=O)[C@H](CC(N)=O)NC(=O)[C@H](CCSC)NC(=O)[C@@H](N)CCC(=O)O)C(=O)N[C@@H](CCCCN)C(=O)N[C@@H](C)C(=O)N[C@@H](CCC(=O)O)C(=O)N[C@@H](CC(C)C)C(=O)N[C@H](C(=O)N[C@@H](C)C(=O)N[C@@H](CCCCN)C(=O)O)[C@@H](C)O [Destabilizer] | above 40 nM | 43% and 41% |
|  |  | 1.89E−03 | 1.73E−03 | 1.73E−03 | C[C@H](NC(=O)[C@H](CCCCN)NC(=O)[C@H](Cc1ccccc1)NC(=O)[C@H](CCCCN)NC(=O)[C@H](CCCCN)NC(=O)[C@H](CCCCN)NC(=O)[C@H](CCCCN)NC(=O)[C@H](CCCCN)NC(=O)[C@H](CCCCN)NC(=O)[C@H](CCCCN)NC(=O)[C@@H](N)CCCCN)C(=O)N[C@@H](CCCCN)C(=O)N[C@@H](CCCCN)C(=O)N[C@@H](CCCCN)C(=O)N[C@@H](CCCCN)C(=O)N[C@@H](CCCCN)C(=O)N[C@@H](CCCCN)C(=O)O [Stabilizer] |  |  |
